Results: patent publication US12194027B2, “Small molecule inhibitors of GPCR GPR68 and related receptors for treating cancer, glioblastoma, and other indications” (UNIVERSITY OF MARYLAND, BALTIMORE, priority 2019, dated 2025)

Columns and labels:
zebrafish embryo [1] = experiment: zebrafish embryo phenotype (pigmentation, morphology); format: in vivo
158 GPCRs = experiment: Millipore GPCR profiling, agonist and antagonist activity; format: cell-based; conditions: 10 μM
zebrafish embryo [2] = experiment: foxD3 in situ hybridization of neural crest progenitors; conditions: in vivo
Method: In situ hybridization was performed as previously described (Westerfield, 2000). Zebrafish foxD3 probes were synthesized as previously described (Stewart et al., 2006).
To identify if neural crest progenitors were perturbed by OGM, foxD3 staining was performed. This identified no difference. […] The views on the right show a magnification of the indicated area, with arrows showing positive staining along the dorsal ridge of the embryo.

A2058 melanoma cell line = experiment: scratch assay for migration, A2058; format: cell-based, human; conditions: OGM 5 μM, EIPA 10 μM, 20 hours
Method: (§1) Cells were grown to confluence and the cells were denuded with a P200 tip. A medium change was done to add fresh medium, remove loose cells and add compounds OGM (5 μM) and EIPA (10 μM). The area of the scratch was observed 20 hours later.
(§2) Since there are numerous parallels are found between neural crest cells and cancer during migration, we examined whether OGM could inhibit the migration of cells in human melanoma cell lines (Oppitz et al., 2007; Schriek et al., 2005; Sinnberg et al., 2018). […] A2058, MeWo and WM115 cells were grown to confluence and a stripe of cells were denuded with a p200 pipette tip “scratch” and rinsed with PBS. Cells were treated with OGM or EIPA, or DMSO and incubated in low serum media. Imaging was done at 30 minutes after “scratch” and then 20 hours afterwards. Areas were then measured and normalized to the initial area.
(§3) Previous studies with the MV3 melanoma cell line have shown that disruption of proton efflux with EIPA inhibition of NHE1 can also reduce melanoma motility (Ludwig et al., 2013; Schneider et al., 2009; Stock et al., 2007, 2005; Stüwe et al., 2007). […] Although the expression of GPR68 and other proton-sensing receptors have been characterized in various skin cancers (Merkel cell carcinoma, dermatofibrosarcoma protuberans, atypical fibroxanthoma, and pleomorphic dermal sarcoma), expression in melanoma cell lines has not investigated (Nassios et al., 2019).

MeWo melanoma cell line = experiment: scratch assay for migration, MeWo; format: cell-based, human; conditions: OGM 5 μM, EIPA 10 μM, 20 hours
Method: as §1, §2, §3

WM115 melanoma cell line = experiment: scratch assay for migration, WM115; format: cell-based, human; conditions: OGM 5 μM, EIPA 10 μM, 20 hours
Method: as §1, §2, §3

WM115 cells = experiment: agarose drop assay (3D model of melanoma extravasation); format: cell-based, human; conditions: 5 μM, 5 days
Method: WM115 cells were trypsinized and resuspended at 100,000 cells per mL in low melt agarose. A 10 μl drop of the cell mixture was added to 12-well plate. After solidifying Normal culture media was added with either DMSO 0.5% or OGM 5 μM. The area around the agarose drop was visualized manually with light microscopy. The cells were incubated for 5 days and visualized. Cells outside of the agarose drop were visualized and quantitated.
FIG. 8A is a schematic of the agarose drop assay. WM115 cells were mixed into a low melt agarose solution and single 10 μL drops were seeded onto cell culture plates. After solidifying, media containing OGM (5 μM) or CTL (DMSO […]) was added and wells were observed 5 days later. Immediately after media addition no cells are on the plate outside of the agarose gel in CTL or OGM. Five days after seeding cells are observed outside of the gel (Black arrows) in CTL but not in OGM. […] Quantification on the number of cells that escaped from an average of 5 gel drop replicates. FIG. 8B through FIG. 8F show the cells after media addition. No cells are on the plate outside of the agarose gel in CTL or OGM. Five days after seeding, cells are observed outside of the gel (arrows) in CTL but not in OGM.

GPR68-GFP = GPR68-GFP (Homo sapiens (Human), UniProt Q15743); experiment: SRE-luciferase assay, GPR68-GFP transfected HEK293T; format: cell-based; conditions: 10 μM
Sequence of GPR68-GFP (Q15743 whole entry): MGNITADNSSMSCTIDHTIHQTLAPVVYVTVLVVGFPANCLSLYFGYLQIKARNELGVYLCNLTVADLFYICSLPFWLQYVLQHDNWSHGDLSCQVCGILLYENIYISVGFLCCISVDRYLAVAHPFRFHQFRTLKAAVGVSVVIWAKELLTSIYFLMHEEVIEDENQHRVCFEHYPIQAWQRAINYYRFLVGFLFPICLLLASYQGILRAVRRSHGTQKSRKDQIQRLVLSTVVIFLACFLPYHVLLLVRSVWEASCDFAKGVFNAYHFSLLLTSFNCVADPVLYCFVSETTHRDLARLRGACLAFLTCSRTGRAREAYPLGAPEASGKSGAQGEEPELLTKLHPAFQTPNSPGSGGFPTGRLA
Method: (§4) 12-well plates of cells were transfected with 1 μg DNA using Lipofectamine 3000 with sre:luciferase and either GFP, GPR68-GFP or 336X-GFP. After 3 days, these cells were then lysed, and cell extracts were subjected to Steady-Glo luciferase assay (Promega™) according to the manufacturer's instructions. The results were normalized to cell titer, as determined using Cell Titer-Glo luminescence assay (Promega™).
(§5) Loss of internalization can indicate loss of activity or loss of the ability to internalize through beta-arrestin. […] Compared to GFP controls, GPR68-GFP and 336X-GFP transfected cells had higher levels of activity. (n=3 biological replicates done in triplicate). Furthermore, the activity of the truncation variant was still inhibited by OGM. […]

336X-GFP = 336X-GFP (Homo sapiens (Human), UniProt Q15743); experiment: SRE-luciferase assay, 336X-GFP truncation variant transfected HEK293T; format: cell-based; conditions: 10 μM
Sequence of 336X-GFP (Q15743 1-335): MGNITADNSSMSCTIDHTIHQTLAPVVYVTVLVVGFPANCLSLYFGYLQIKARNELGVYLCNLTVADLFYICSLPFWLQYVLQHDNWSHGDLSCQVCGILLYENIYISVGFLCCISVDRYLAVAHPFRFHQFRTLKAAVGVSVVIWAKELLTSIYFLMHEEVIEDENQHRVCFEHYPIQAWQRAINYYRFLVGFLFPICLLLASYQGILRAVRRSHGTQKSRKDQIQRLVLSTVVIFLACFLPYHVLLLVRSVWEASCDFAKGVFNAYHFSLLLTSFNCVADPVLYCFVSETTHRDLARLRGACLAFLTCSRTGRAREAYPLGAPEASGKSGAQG
Method: as §4
A deletion between amino acid 336 and the beginning of GFP was generated from the MCSV:GPR68-GFP plasmid using the Q5 mutagenesis kit (NEB).
as §5

[3] = tested on: U87 glioblastoma cell line; experiment: 2D cell viability (cell titer blue), U87; format: cell-based; conditions: U87, 72 hours
Method: (§6) Temozolomide is the standard of care for glioblastoma but only works on 30% of patients. Temozolomide sensitive U87 (FIG. 17A) and Temozolomide insensitive U138 (FIG. 17B) glioblastoma cell lines were plated in 96-well plates and exposed to increasing doses of either Temozolomide or OGM2. The viability of cells was assayed using cell titer blue after 72 hours, and data was normalized to DMSO vehicle control. See results in FIG. 17.

[4] = tested on: U138 glioblastoma cell line; experiment: 2D cell viability (cell titer blue), U138; format: cell-based; conditions: U138, 72 hours
Method: as §6

[5] = tested on: U87 glioblastoma cell line; experiment: 3D tumor spheroid growth, U87; format: cell-based; conditions: U87, 5 days of treatment
Method: (§7) Tumor spheroid cultures are a more physiological model of tumor growth than typical 2D cell culture. Temozolomide sensitive U87 (FIG. 18A) and Temozolomide insensitive U138 (FIG. 18B) glioblastoma cell lines were plated in low attachment round bottom 96-well plates and allowed to form tumor spheroids for 3 days (T0). At T0, spheroids were imaged using Lionheart™ (HCS) High-Content Imaging Systems (Biotek™) and then were exposed to increasing doses of either Temozolomide or OGM2. After 5 days of treatment the spheroids were imaged again (T5). The size (area) of the spheroids after 5 days of treatment was quantified, and the average size of the spheroids at T0 is depicted in red.

[6] = tested on: U138 glioblastoma cell line; experiment: 3D tumor spheroid growth, U138; format: cell-based; conditions: U138, 5 days of treatment
Method: as §7

U87 cells = experiment: clonogenicity of U87 cells (crystal violet); format: cell-based; conditions: 0.1-2 uM, 12 days
Method: U87 cells were plated at 400 cells per well in a 6-well plate and on the next day were treated with increasing concentrations of OGM2 for 12 days. The doses were 0 uM (DMSO control) 0.1 μM 0.5 uM, 1 uM, 1.5 uM and 2 uM, as labelled. The plate was fixed with formalin and stained with crystal violet.

SMILES: CCc1ccc2c(c1)C1(NN=C(c3cccc4ccccc34)S1)C(=O)N2 (stereo not drawn) [OGM, 5-ethyl-5′-naphthalen-1-ylspiro[1H-indole-3,2′-3H-1,3,4-thiadiazole]-2-one]
- induced morphological phenotype (zebrafish embryo [1]; OGM 10 uM, 48 hours pf): induced ventral curvature, wavy notochord, shortened body axis, craniofacial defects, and loss of retinal iridophores
- time window of pigmentation defect (zebrafish embryo [1]; temporal phenotypic analysis, treatment windows 0-36 hours pf): dependent on treatment during the 12 hours pf-18 hours pf time window
- agonist and antagonist activity against 158 GPCRs (158 GPCRs): Only GPR68, LPA1 and GPR14 (UT2R) showed significant activity
- foxD3 staining of neural crest progenitors (zebrafish embryo [2]): no difference
- migration in scratch assay (A2058 melanoma cell line): inhibited migration
- migration in scratch assay (MeWo melanoma cell line): inhibited migration
- migration in scratch assay (WM115 melanoma cell line): inhibited migration
- migration out of agarose drop (WM115 cells): migrated significantly less
- SRE-luciferase activity (GPR68-GFP): reduced the level of luciferase activity
- SRE-luciferase activity (336X-GFP): reduced the level of luciferase activity
- viability versus Temozolomide [3]: more effective than Temozolomide
- viability versus Temozolomide [4]: more effective than Temozolomide
- spheroid size versus Temozolomide [5]: more effective than Temozolomide
- spheroid size versus Temozolomide [6]: more effective than Temozolomide
- clonogenicity (U87 cells): Reduces Clonogenicity
